{"source": "patent US5169838A", "about": "“Benzopyranone-β-D-thioxylosides and their use in therapy” (Fournier Industrie et Sante, priority 1989, dated 1992)", "data": [{"assay": "venous thrombosis (venous stasis under hypercoagulation with activated factor X, Wessler technique)", "format": "in vivo, male Wistar rats", "conditions": "po, administered orally, rat, thrombosis induced 4 hours after treatment, thrombus weighed", "experimental": "The study is performed on unfasted male Wistar rats weighing 250 to 280 g, divided up into groups of 10 animals each. The test products are administered orally as a suspension in PEG 400. A thrombosis is induced 4 hours after this treatment and the thrombus formed is removed and weighed.", "units": {"inhibition in vivo at 3 mg/kg": "%"}, "values": [{"compound": "CCc1cc(=O)oc2cc(O[C@@H]3SC[C@@H](O)[C@H](O)[C@H]3O)ccc12", "note": "[Example 1, 4-ethyl-2-oxo-2H-1-benzopyran-7-yl 5-thio-β-D-xylopyranoside]", "inhibition in vivo at 3 mg/kg": 87}, {"compound": "CCc1cc(=O)oc2cc(O[C@@H]3SC[C@@H](OC(C)=O)[C@H](OC(C)=O)[C@H]3OC(C)=O)ccc12", "note": "[Example 1a, 4-ethyl-2-oxo-2H-1-benzopyran-7-yl 2,3,4-tri-O-acetyl-5-thio-β-D-xylopyranoside]", "inhibition in vivo at 3 mg/kg": 65}, {"compound": "Cc1cc(=O)oc2ccc(O[C@@H]3SC[C@@H](O)[C@H](O)[C@H]3O)cc12", "note": "[Example 2, 4-methyl-2-oxo-2H-1-benzopyran-6-yl 5-thio-β-D-xylopyranoside]", "inhibition in vivo at 3 mg/kg": 81}, {"compound": "CC(=O)O[C@@H]1[C@@H](OC(C)=O)[C@H](OC(C)=O)CS[C@H]1Oc1ccc2oc(=O)cc(C)c2c1", "note": "[Example 2a, 4-methyl-2-oxo-2H-1-benzopyran-6-yl 2,3,4-tri-O-acetyl-5-thio-β-D-xylopyranoside]", "inhibition in vivo at 3 mg/kg": 53}, {"compound": "O=c1cc(C(F)(F)F)c2ccc(O[C@@H]3SC[C@@H](O)[C@H](O)[C@H]3O)cc2o1", "note": "[Example 3, 4-trifluoromethyl-2-oxo-2H-1-benzopyran-7-yl 5-thio-β-D-xylopyranoside]", "inhibition in vivo at 3 mg/kg": 80}, {"compound": "CC(=O)O[C@@H]1[C@@H](OC(C)=O)[C@H](OC(C)=O)CS[C@H]1Oc1ccc2c(C(F)(F)F)cc(=O)oc2c1", "note": "[Example 3a, 4-trifluoromethyl-2-oxo-2H-1-benzopyran-7-yl 2,3,4-tri-O-acetyl-5-thio-β-D-xylopyranoside]", "inhibition in vivo at 3 mg/kg": 47}, {"compound": "Cc1cc(=O)oc2c(O[C@@H]3SC[C@@H](O)[C@H](O)[C@H]3O)cccc12", "note": "[Example 4, 4-methyl-2-oxo-2H-1-benzopyran-8-yl 5-thio-β-D-xylopyranoside]", "inhibition in vivo at 3 mg/kg": 52}, {"compound": "CC(=O)O[C@@H]1[C@@H](OC(C)=O)[C@H](OC(C)=O)CS[C@H]1Oc1cccc2c(C)cc(=O)oc12", "note": "[Example 4a, 4-methyl-2-oxo-2H-1-benzopyran-8-yl 2,3,4-tri-O-acetyl-5-thio-β-D-xylopyranoside]", "inhibition in vivo at 3 mg/kg": 51}, {"compound": "CCCc1cc(=O)oc2cc(O[C@@H]3SC[C@@H](O)[C@H](O)[C@H]3O)ccc12", "note": "[Example 5, 2-oxo-4-propyl-2H-1-benzopyran-7-yl 5-thio-β-D-xylopyranoside]", "inhibition in vivo at 3 mg/kg": 26}, {"compound": "CCCc1cc(=O)oc2cc(O[C@@H]3SC[C@@H](OC(C)=O)[C@H](OC(C)=O)[C@H]3OC(C)=O)ccc12", "note": "[Example 5a, 2-oxo-4-propyl-2H-1-benzopyran-7-yl 2,3,4-tri-O-acetyl-5-thio-β-D-xylopyranoside]", "inhibition in vivo at 3 mg/kg": 46}, {"compound": "Cc1cc(=O)oc2cccc(O[C@@H]3SC[C@@H](O)[C@H](O)[C@H]3O)c12", "note": "[Example 6, 4-methyl-2-oxo-2H-1-benzopyran-5-yl 5-thio-β-D-xylopyranoside]", "inhibition in vivo at 3 mg/kg": 42}, {"compound": "Cc1cc(=O)oc2cccc(S[C@@H]3SC[C@@H](O)[C@H](O)[C@H]3O)c12", "note": "[Example 7, 4-methyl-2-oxo-2H-1-benzopyran-5-yl 1,5-dithio-β-D-xylopyranoside]", "inhibition in vivo at 3 mg/kg": 38}, {"compound": "Cc1cc(=O)oc2cc(S[C@@H]3SC[C@@H](O)[C@H](O)[C@H]3O)ccc12", "note": "[Example 8, 4-methyl-2-oxo-2H-1-benzopyran-7-yl 1,5-dithio-β-D-xylopyranoside]", "inhibition in vivo at 3 mg/kg": 46}, {"compound": "CC(=O)O[C@@H]1[C@@H](OC(C)=O)[C@H](Sc2ccc3c(C)cc(=O)oc3c2)SC[C@H]1OC(C)=O", "note": "[Example 8a, 4-methyl-2-oxo-2H-1-benzopyran-7-yl 2,3,4-tri-O-acetyl-1,5-dithio-β-D-xylopyranoside]", "inhibition in vivo at 3 mg/kg": 65}, {"compound": "Cc1cc(=O)oc2c(S[C@@H]3SC[C@@H](O)[C@H](O)[C@H]3O)cccc12", "note": "[Example 9, 4-methyl-2-oxo-2H-1-benzopyran-8-yl 1,5-dithio-β-D-xylopyranoside]", "inhibition in vivo at 3 mg/kg": 31}, {"compound": "Cc1cc(=O)oc2ccc(S[C@@H]3SC[C@@H](O)[C@H](O)[C@H]3O)cc12", "note": "[Example 10, 4-methyl-2-oxo-2H-1-benzopyran-6-yl 1,5-dithio-β-D-xylopyranoside]", "inhibition in vivo at 3 mg/kg": 37}, {"compound": "CC(=O)O[C@@H]1[C@@H](OC(C)=O)[C@H](Sc2ccc3oc(=O)cc(C)c3c2)SC[C@H]1OC(C)=O", "note": "[Example 10a, 4-methyl-2-oxo-2H-1-benzopyran-6-yl 2,3,4-tri-O-acetyl-1,5-dithio-β-D-xylopyranoside]", "inhibition in vivo at 3 mg/kg": 32}, {"compound": "O=c1cc(C(F)(F)F)c2ccc(S[C@@H]3SC[C@@H](O)[C@H](O)[C@H]3O)cc2o1", "note": "[Example 11, 4-trifluoromethyl-2-oxo-2H-1-benzopyran-7-yl 1,5-dithio-β-D-xylopyranoside]", "inhibition in vivo at 3 mg/kg": 36}, {"compound": "Cc1c(Cl)c(=O)oc2cc(S[C@@H]3SC[C@@H](O)[C@H](O)[C@H]3O)ccc12", "note": "[Example 12, 3-chloro-4-methyl-2-oxo-2H-1-benzopyran-7-yl 1,5-dithio-β-D-xylopyranoside]", "inhibition in vivo at 3 mg/kg": 65}, {"compound": "CC(=O)O[C@@H]1[C@@H](OC(C)=O)[C@H](Sc2ccc3c(C)c(Cl)c(=O)oc3c2)SC[C@H]1OC(C)=O", "note": "[Example 12a, 3-chloro-4-methyl-2-oxo-2H-1-benzopyran-7-yl 2,3,4-tri-O-acetyl-1,5-dithio-β-D-xylopyranoside]", "inhibition in vivo at 3 mg/kg": 32}, {"compound": "CCc1cc(=O)oc2cc(S[C@@H]3SC[C@@H](O)[C@H](O)[C@H]3O)ccc12", "note": "[Example 13, 4-ethyl-2-oxo-2H-1-benzopyran-7-yl 1,5-dithio-β-D-xylopyranoside]", "inhibition in vivo at 3 mg/kg": 54}, {"compound": "CCc1cc(=O)oc2cc(S[C@@H]3SC[C@@H](OC(C)=O)[C@H](OC(C)=O)[C@H]3OC(C)=O)ccc12", "note": "[Example 13a, 4-ethyl-2-oxo-2H-1-benzopyran-7-yl 2,3,4-tri-O-acetyl-1,5-dithio-β-D-xylopyranoside]", "inhibition in vivo at 3 mg/kg": 58}, {"compound": "CCCc1cc(=O)oc2cc(S[C@@H]3SC[C@@H](O)[C@H](O)[C@H]3O)ccc12", "note": "[Example 14, 2-oxo-4-propyl-2H-1-benzopyran-7-yl 1,5-dithio-β-D-xylopyranoside]", "inhibition in vivo at 3 mg/kg": 43}, {"compound": "CCCc1cc(=O)oc2cc(S[C@@H]3SC[C@@H](OC(C)=O)[C@H](OC(C)=O)[C@H]3OC(C)=O)ccc12", "note": "[Example 14a, 2-oxo-4-propyl-2H-1-benzopyran-7-yl 2,3,4-tri-O-acetyl-1,5-dithio-β-D-xylopyranoside]", "inhibition in vivo at 3 mg/kg": 25}, {"compound": "O=c1oc2cc(S[C@@H]3SC[C@@H](O)[C@H](O)[C@H]3O)ccc2c2c1CCCC2", "note": "[Example 15, 7,8,9,10-tetrahydro-6-oxo-6H-dibenzo[b,d]pyran-3-yl 1,5-dithio-β-D-xylopyranoside]", "inhibition in vivo at 3 mg/kg": 31}, {"compound": "CC(=O)O[C@@H]1[C@@H](OC(C)=O)[C@H](Sc2ccc3c4c(c(=O)oc3c2)CCCC4)SC[C@H]1OC(C)=O", "note": "[Example 15a, 7,8,9,10-tetrahydro-6-oxo-6H-dibenzo[b,d]pyran-3-yl 2,3,4-tri-O-acetyl-1,5-dithio-β-D-xylopyranoside]", "inhibition in vivo at 3 mg/kg": 23}, {"compound": "Cc1cc(=O)oc2cc(O[C@@H]3SC[C@@H](O)[C@H](O)[C@H]3O)ccc12", "note": "[Example 16, 4-methyl-2-oxo-2H-1-benzopyran-7-yl 5-thio-β-D-xylopyranoside]", "inhibition in vivo at 3 mg/kg": 63}, {"compound": "CC(=O)O[C@@H]1[C@@H](OC(C)=O)[C@H](OC(C)=O)CS[C@H]1Oc1ccc2c(C)cc(=O)oc2c1", "note": "[Example 16a, 4-methyl-2-oxo-2H-1-benzopyran-7-yl 2,3,4-tri-O-acetyl-5-thio-β-D-xylopyranoside]", "inhibition in vivo at 3 mg/kg": 63}]}]}
